{"source": "patent US20040063651A1", "about": "“Remedies for hepatitis c” (priority 2000, published 2004)", "key": {"HCV RNA polymerase": {"biological_target": "T1, HCV RNA polymerase (Hepatitis C virus genotype 1b, UniProt Q9WMX2)", "T1 construct": "Expression and purification of HCV RNA polymerase were performed in accordance with known processes; made in house", "T1 sequence (Q9WMX2 2420-3010)": "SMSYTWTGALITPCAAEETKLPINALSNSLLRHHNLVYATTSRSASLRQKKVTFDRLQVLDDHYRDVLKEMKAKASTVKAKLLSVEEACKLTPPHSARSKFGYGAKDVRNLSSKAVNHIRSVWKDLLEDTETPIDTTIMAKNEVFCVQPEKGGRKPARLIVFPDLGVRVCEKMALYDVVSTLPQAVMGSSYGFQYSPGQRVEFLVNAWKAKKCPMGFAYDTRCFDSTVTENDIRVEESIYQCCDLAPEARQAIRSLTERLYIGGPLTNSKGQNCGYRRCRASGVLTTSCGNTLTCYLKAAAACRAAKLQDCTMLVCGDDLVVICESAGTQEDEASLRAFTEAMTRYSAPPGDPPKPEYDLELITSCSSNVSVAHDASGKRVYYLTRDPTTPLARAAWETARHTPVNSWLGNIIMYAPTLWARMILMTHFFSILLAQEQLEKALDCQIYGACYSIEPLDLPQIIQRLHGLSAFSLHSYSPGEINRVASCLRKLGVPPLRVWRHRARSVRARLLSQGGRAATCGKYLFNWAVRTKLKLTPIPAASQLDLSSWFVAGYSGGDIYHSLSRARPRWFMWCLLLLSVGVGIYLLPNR", "assay": "Inhibitory effect on HCV RNA polymerase activity ([α-32P]UTP incorporation, poly(A)/oligo(U))", "type": "biochemical", "settings": "10 uM UTP, 30° C. for 30 minutes; read-out: 50% inhibitory concentration for HCV RNA polymerase", "experimental": "Inhibitory effect on an HCV RNA polymerase activity of the compounds of Synthetic Example 12, Synthetic Example 13, Synthetic Example 19, Synthetic Example 21 and Synthetic Example 22 described above was measured by the following process.\nExpression and purification of HCV RNA polymerase were performed in accordance with known processes (V. Lohman et al., VIROLOGY, 249, 108-118, 1998).\nThe purified HCV RNA polymerase in an amount of 200 ng was mixed with 100 ng/mL poly(A)RNA (polyadenine RNA) as a template RNA and 25 ng/mL 15-mer oligo(U)RNA (oligouridine having 15 bases, TAKARA Shuzo) as a primer RNA in 50 μL of an aqueous solution containing 20 mM Tris-Cl (pH 7.5), 5 MM MgCl2, 25 mM KCl, 10 uM UTP (Uridine-triphosphate), 0.25 Ci/mL [α-^32P]UTP (Amersham, PB10203). Then, thereto was added the compound of Synthetic Example 12, Synthetic Example 13, Synthetic Example 19, Synthetic Example 21 or Synthetic Example 22, followed by an RNA synthetic reaction at 30° C. for 30 minutes.\nAfter completing the reaction, RNA in the solution was absorbed on DE81 paper (Whattman). Then, [α-^32P]UTP which was not incorporated into the synthesized RNA was washed out with 0.5 M phosphate buffer, and the quantity of [α-^32P]UTP which was incorporated into the synthesized RNA on the DE81 paper was determined on a liquid scintillation counter.\nInhibitory potency of the compounds of Synthetic Example 12, Synthetic Example 13, Synthetic Example 19, Synthetic Example 21 and Synthetic Example 22 was represented by 50% inhibitory concentration when the negative control without HCV RNA polymerase was assumed as 0% while the positive control without the compound was assumed as 100%."}, "MT-2C cells": {"system": "MT-2C cells", "assay": "Yield of total cellular RNA of HCV-infected MT-2C cells (cell injury)", "type": "cell-based, human", "settings": "0.1-10 μM compound, 7 days culture", "experimental": "MT-2C cells that are cells derived from human T cells (Kato, N. et. al., Biochem. Biophs. Res. Commun. 206, 863-869, 1995) were cultured in an RPMI 1640 medium (Gibco-BRL 11875-101) supplemented with FBS (Foetal Bovine Serum, Gibco-BRL10082-147) at 10%. Thus cultured MT-2C cells (1×10^6 cells) were suspended in 200 uL of an F-12 medium (Gibco-BRL 11059-029) added with EDTA (ethylenediamine tetraacetic acid) to yield final concentration of 5 mM. Thereto was added 20 μL of a serum derived from a hepatitis C patient, followed by infection at 37° C. for 2 hours. After the infection, the cells were washed three times with 1 mL of PBS (Phosphate buffered saline), suspended in 6 mL of an RPMI medium added with FBS at 10%. The suspended cells were seeded on a 48 well culture plate, and incubated in a CO2 incubator at 32° C. for 3 days. Thereto was added the compound of Synthetic Example 1, Synthetic Example 2, Synthetic Example 10 or Synthetic Example 11 dissolved in DMSO (Dimethyl Sulfoxide) in an amount of thousandths of the medium, and the mixture was cultured for 3 days. A medium adjusted to have the same concentration of the identical compound was added to each well in a two-fold volume, followed by an additional culture for 4 days. Cells were harvested for each of the samples, and total cellular RNA was purified. For the RNA purification, ISOGEN (NIPPON GENE, 311-02501) was used. In order to quantitatively determine an HCV RNA genome in the purified RNA, the following operation was carried out."}, "Hepatitis C Virus (HCV)": {"system": "Hepatitis C Virus (HCV)", "assay": "Inhibitory effect on HCV proliferation in infected MT-2C cells (nested RT-PCR detection limit dilution of HCV genome)", "type": "cell-based", "settings": "for detection of HCV genome in diluted RT product: FIG. 2, negative control detected up to 10-fold or 30-fold dilution", "experimental": "Inhibitory effect on HCV proliferation of the compounds of Synthetic Example 1, Synthetic Example 2, Synthetic Example 10 and Synthetic Example 11 described above was measured by the following process.\nMeasurement of anti HCV proliferation inhibitory activity was performed in accordance with a known process (Kato, N. et. al., Biochem. Biophs. Res. Commun. 206, 863-869, 1995).\nMT-2C cells that are cells derived from human T cells (Kato, N. et. al., Biochem. Biophs. Res. Commun. 206, 863-869, 1995) were cultured in an RPMI 1640 medium (Gibco-BRL 11875-101) supplemented with FBS (Foetal Bovine Serum, Gibco-BRL10082-147) at 10%. Thus cultured MT-2C cells (1×10^6 cells) were suspended in 200 uL of an F-12 medium (Gibco-BRL 11059-029) added with EDTA (ethylenediamine tetraacetic acid) to yield final concentration of 5 mM. Thereto was added 20 μL of a serum derived from a hepatitis C patient, followed by infection at 37° C. for 2 hours. After the infection, the cells were washed three times with 1 mL of PBS (Phosphate buffered saline), suspended in 6 mL of an RPMI medium added with FBS at 10%. The suspended cells were seeded on a 48 well culture plate, and incubated in a CO2 incubator at 32° C. for 3 days.\nThereto was added the compound of Synthetic Example 1, Synthetic Example 2, Synthetic Example 10 or Synthetic Example 11 dissolved in DMSO (Dimethyl Sulfoxide) in an amount of thousandths of the medium, and the mixture was cultured for 3 days. A medium adjusted to have the same concentration of the identical compound was added to each well in a two-fold volume, followed by an additional culture for 4 days. Cells were harvested for each of the samples, and total cellular RNA was purified. For the RNA purification, ISOGEN (NIPPON GENE, 311-02501) was used. In order to quantitatively determine an HCV RNA genome in the purified RNA, the following operation was carried out.\nUsing 1 μg of the purified RNA, a reverse transcription reaction was performed in a total volume of 20 uL at 37° C. for 1 hour. Subsequently, an inactivation treatment of the reverse transcriptase was carried out at 100° C. for 30 minutes. SuperScript™ II (Gibco BRL 18064-014) was used as a reverse. transcriptase, and an oligoDNA (Gibco BRL) having 20 bases which are complementary to the sequence of base position 317 through base position 336 of HCV-J strain (Kato, N. et. al. Proc. Natl. Acad. Sci. USA 87, 9524-9528, 1990) was used as a primer.\nProduct of the reverse transcription reaction was diluted to 3-fold, 10-fold, 30-fold and 100-fold with sterilized and distilled water. First PCR (Polymerase Chain Reaction), (34 cycles of: at 94° C. for 1 minute, at 58° C. for 45 seconds and at 72° C. for 1 minute; and 1 cycle of: at 94° C. for 1 minute, at 58° C. for 1 minute and 40 seconds and at 72° C. for 8 minutes) was performed in a total volume of 50 μL using 3 μL of the diluted product of the reverse transcription reaction. EX-Taq (TAKARA RR001A) was used as a DNA synthetase, while an oligoDNA (GibcoBRL) having 20 bases which correspond to the sequence of base position 71 through base position 90 and an oligoDNA (Gibco BRL) having 20 bases which are complementary to the sequence of base position 317 through base position 336 of HCV-J strain were used as primers. […]"}, "[1]": {"system": "proximate viruses of the hepatitis C virus (viruses having (+)-chain single stranded RNA in their genome)", "settings": "cited from earlier work"}, "hepatitis C": {"system": "hepatitis C", "settings": "medical treatment of hepatitis C; cited from earlier work"}}, "data": [{"molecule": "O=c1ccn([C@H]2O[C@@H](COP(=O)(O)OP(=O)(O)OP(=O)(O)O)[C@H](F)[C@@H]2O)c(=O)[nH]1", "note": "[Synthetic Example 21, 1-(3′-deoxy-3′-fluoro-β-L-ribofuranosyl)uracil 5′-triphosphate]", "values": [{"measurement": "IC50", "setting": "HCV RNA polymerase", "result": 3, "unit": "µM"}]}, {"molecule": "O=c1ccn([C@@H]2O[C@H](COP(=O)(O)OP(=O)(O)OP(=O)(O)O)[C@@H](F)[C@H]2O)c(=S)[nH]1", "note": "[Synthetic Example 19, 3′-deoxy-3′-fluoro-2-thiouridine 5′-triphosphate]", "values": [{"measurement": "IC50", "setting": "HCV RNA polymerase", "result": 3, "unit": "µM"}]}, {"molecule": "O=c1[nH]c(=O)n([C@@H]2O[C@H](COP(=O)(O)OP(=O)(O)OP(=O)(O)O)[C@@H](F)[C@H]2O)cc1F", "note": "[Synthetic Example 13, 3′-deoxy-5,3′-difluorouridine 5′-triphosphate]", "values": [{"measurement": "IC50", "setting": "HCV RNA polymerase", "result": 1, "unit": "µM"}]}, {"molecule": "O=c1ccn([C@@H]2O[C@H](CO)[C@@H](F)[C@H]2O)c(=O)[nH]1", "note": "[Synthetic Example 1, 3′-deoxy-3′-fluorouridine]", "values": [{"measurement": "yield of total RNA for each of the samples (injury on the cells)", "setting": "MT-2C cells", "result": "little or no alteration"}, {"measurement": "detection limit dilution (fold) of an HCV genome", "setting": "Hepatitis C Virus (HCV); 1.0 μM added, FIG. 1, negative control detected up to 30-fold or 100-fold dilution", "result": "up to 3-fold or 10-fold"}, {"measurement": "inhibitory activity on proximate viruses of the hepatitis C virus", "setting": "[1]", "result": "only a low inhibitory activity"}]}, {"molecule": "O=c1ccn([C@H]2O[C@@H](CO)[C@H](F)[C@@H]2O)c(=O)[nH]1", "note": "[Synthetic Example 10, 1-(3′-deoxy-3′-fluoro-β-L-ribofuranosyl)uracil]", "values": [{"measurement": "yield of total RNA for each of the samples (injury on the cells)", "setting": "MT-2C cells", "result": "little or no alteration"}, {"measurement": "detection of HCV genome in diluted RT product", "setting": "Hepatitis C Virus (HCV); 1 μM added", "result": "could not be detected, except for one sample diluted to 10-fold"}, {"measurement": "detection of HCV genome in diluted RT product", "setting": "Hepatitis C Virus (HCV); 10 μM added", "result": "could not be detected, except for one sample diluted to 10-fold"}]}, {"molecule": "O=c1ccn([C@@H]2O[C@H](COP(=O)(O)OP(=O)(O)OP(=O)(O)O)[C@@H](F)[C@H]2O)c(=O)[nH]1", "note": "[Synthetic Example 12, 3′-deoxy-3′-fluorouridine 5′-triphosphate]", "values": [{"measurement": "IC50", "setting": "HCV RNA polymerase", "result": 0.3, "unit": "µM"}]}, {"molecule": "O=c1[nH]c(=O)n([C@H]2O[C@@H](CO)[C@H](F)[C@@H]2O)cc1F", "note": "[Synthetic Example 11, 1-(3′-deoxy-5,3′-difluoro-β-L-ribofuranosyl)uracil]", "values": [{"measurement": "yield of total RNA for each of the samples (injury on the cells)", "setting": "MT-2C cells", "result": "little or no alteration"}, {"measurement": "detection of HCV genome in diluted RT product", "setting": "Hepatitis C Virus (HCV); 1 μM added", "result": "could not be detected, except for one sample diluted to 10-fold"}, {"measurement": "detection of HCV genome in diluted RT product", "setting": "Hepatitis C Virus (HCV); 10 μM added", "result": "could not be detected, except for one sample diluted to 10-fold"}]}, {"molecule": "O=c1[nH]c(=O)n([C@@H]2O[C@H](CO)[C@@H](F)[C@H]2O)cc1F", "note": "[Synthetic Example 2, 3′-deoxy-5,3′-difluorouridine]", "values": [{"measurement": "yield of total RNA for each of the samples (injury on the cells)", "setting": "MT-2C cells", "result": "little or no alteration"}]}, {"molecule": "interferon", "values": [{"measurement": "efficacy", "setting": "hepatitis C", "result": "not more than 30%"}]}, {"molecule": "O=c1[nH]c(=O)n([C@H]2O[C@@H](COP(=O)(O)OP(=O)(O)OP(=O)(O)O)[C@H](F)[C@@H]2O)cc1F", "note": "[Synthetic Example 22, 1-(3′-deoxy-5,3′-fluoro-β-L-ribofuranosyl)uracil 5′-triphosphate]", "values": [{"measurement": "IC50", "setting": "HCV RNA polymerase", "result": 10, "unit": "µM"}]}]}
